# Source: article PMC5462101 (Future medicinal chemistry, 2015)
# Several values for one entry are separate records, joined by “and”; a condition that tells them apart may be missing. Identical values can stand only once.
# Tests used:
# [1] = Competition with DMSO for hydroxyl radicals; settings: compound at 100 µM, Fe3+/ascorbic acid, DMSO 33 mM
# Description: Competition of the novel pteridine derivatives with dimethyl sulfoxide for hydroxyl radicals was measured. […] The majority of the derivatives were excellent scavengers of hydroxyl radicals with activity higher than the reference compound 6-hydroxy-2,5,7,8-tetramethylchroman-2-carboxylic acid (Trolox).
# Competition of pteridine derivatives with DMSO for hydroxyl radicals
# Hydroxyl radicals generated by the Fe^3+/ascorbic acid system were detected by determination of formaldehyde produced from the oxidation of DMSO, according to the procedure of Nash. The reaction mixture comprised ethylenediaminetetracetic acid (EDTA) (0.1 mM), Fe^3+ (167 μM), DMSO (33 mM) in phosphate buffer (50 mM, pH 7.4), ascorbic acid (10 mM) and the compound to be tested at 100 µM. After incubation at 37 °C for 30 min the mixture was quenched with aqueous trichloroacetic acid (17% w/v) (Table 2) and the percentage competition of the tested compounds with DMSO for hydroxyl radicals was determined (Table 2).
# rat model of colitis = test: Acetic acid-induced colitis in the rat; type: in vivo, Fisher 344 rats; settings: 0.01 mmol/kg intrarectally, 4% acetic acid
# Description: LOX has also been associated with inflammation and ulcerative colitis. In the present study, a model for colitis involving intracolonic administration of aqueous 4% acetic acid in the rat was used, leading to acute inflammatory reaction. Treated rats presented partial to diffuse petechial bleeding, single erosion and limited ulceration indicating an overall healing effect of the compounds. Substituted pteridines presenting a satisfactory combination of activities 5a, 18a, 18d and 18f were tested using this in vivo model characterized by diffuse exfoliated mucosa as well as multiple and extended erosion and ulcers of the colon (Table 3). No mortality was encountered.
# (§1) Fisher 344 rats (150-200 g) were housed in wire-mesh cages, given standard laboratory chow and tap water ad libitum and acclimatized for one week before experiments. Rats were randomly assigned to experimental groups. All in vivo experiments conform to the law for the protection of experimental animals (Republic of Greece) and are registered at the Veterinary Administration of the Republic of Greece in accordance with recognized guidelines on animal experimentation including Directive 2010/63/EU.
# Induction of colitis
# Rats were anesthetized using pentobarbital (50 mg/kg ip) prior to administration with 1 mL of either vehicle (0.9% w/v saline) or the compound under study at doses 0.01mmol/kg intrarectally via a polyethylene cannula (fitted to a 1 mL syringe) with the tip inserted approximately 8 cm into the anus. Following 30 min pretreatment, 1 ml of 4% acetic acid was introduced into the colon intrarectally and, after exposure for 60 s, the excess fluid was withdrawn. The luminal content was then expelled by instillation of air (10 mL), the ligature was removed and the abdomen was sutured. Both groups of rats were allowed to recover with food and water and the resulting injury was assessed after 48 h. The experiment was conducted using two groups, each containing 3 animals.
# Assessment of colonic damage. Rats were weighed, inspected for the presence of diarrhea and sacrificed using diethyl ether. The colons were excised and opened longitudinally, rinsed with cold saline, pinned out and observed under a dissecting microscope. Colonic damage was scored using the system of MacPherson and Pfeiffer: 0 – normal appearance, 1- hyperaemia, 2 – patchy petechial bleeding, 3 – diffuse petechial bleeding, 4 – partial exfoliated mucosa or single erosion or ulceration, 5 – diffuse exfoliated mucosa or multiple erosions or ulceration. The presence or absence of adhesions between the colon and the surrounding tissues was recorded. Scoring of the colonic damage (Table 4) was carried out by an observer unaware of the treatment.
# [2] = Inhibition of linoleic acid peroxidation (AAPH); settings: linoleic acid peroxidation initiated by AAPH, 37 °C, pH 7.4
# Description: Azo compounds that generate free radicals through spontaneous thermal decomposition are useful for in vitro studies of free radical production. The water-soluble AAPH has been extensively used as a clean and controllable source of thermally produced alkylperoxyl free radicals. […] Evidently, the presence of 6,7-dimethyl groups on the pteridine ring greatly enhances protection against lipid peroxidation; the nature of the alkyl group and ring size on the 2-substituent has some, but much less, effect. […] The role of lipophilicity (as assessed from calculated clogP values; Table 1) is not clear, but substituent bulk plays a significant role.
# Inhibition of linoleic acid peroxidation
# Production of conjugated diene hydroperoxide by oxidation of linoleic acid in an aqueous dispersion was monitored at 234 nm. 2,2’-Azobis(2-amidinopropane) dihydrochloride (AAPH) was used as a free radical initiator. This assay was used to follow oxidative changes and to determine the inhibition of the peroxidation of sodium linoleate by each tested compound. A dispersion of sodium linoleate (16 mM, 10 μL) was added to the UV cuvette containing phosphate buffer (0.05 M, 0.93 mL) at pH 7.4 and kept in a thermostat at 37 °C. The oxidation reaction was initiated at 37 °C under air by the addition of AAPH solution (40 mM, 50 μL). Oxidation was carried out in the presence of aliquots (10 μL) of the tested compound. In the assay without antioxidant, lipid oxidation was measured in the presence of DMSO (10 μL). The rate of oxidation at 37 °C was monitored by recording the increase in absorption at 234 nm caused by conjugated diene hydroperoxide formation (Table 2).
# IC50 determinations. OriginPro 8 was used to determine IC50 values from the sigmoidal line fitted to a graph of log[concentration] against the average percentage inhibition from two independent experiments, with at least 6 different concentrations. The SEM is the calculated standard error in the IC50 value of the fitted line.
# [3] = test system: carrageenin-induced rat paw edema; test: Inhibition of carrageenin-induced rat paw edema; type: in vivo, Fisher 344 rats
# Description: The incipient pattern of this edema is characterized by the effects of histamine and 5-hydroxytryptamine. After 1 h, reduction of edema in the rat paw achieved by the pteridine 18f was appreciably greater than the reduction induced by the reference compound indomethacin, a nonselective COX-inhibitor and commonly used nonsteroidal anti-inflammatory drug. Thus, 18f and some related pteridines offer significant protection against reactive oxygen species produced in a model of colitis, probably on account of their properties as antioxidants and radical scavengers.
# as §1
# Inhibition of carrageenin-induced edema
# Edema was induced in the right hind paw of Fisher 344 rats (150-200 g) by intradermal injection of aqueous carrageenin (0.1 mL, 2%). Pregnant females were excluded from the study, but both sexes were used. Each group comprised 6-15 rats which were bred and housed under standard conditions and received a diet of commercial food pellets and water ad libitum during maintenance but were entirely fasted during the experiment period. Each compound (0.01 mmol/kg body weight) was suspended in water to which had been added a few drops of Tween 80 and then the mixture was ground in a mortar prior to being administered intraperitoneally and simultaneously with the carrageenin injection. Rats were euthanized 1 h after injection, and the difference between the weight of the injected and non-injected paws was calculated for each animal. The change in paw weight was compared with that in control animals (treated with water) and the inhibition of the edema was expressed as a percentage (Table 4). […]
smiles,measurement,setting,value
"CN1CCN(c2nc(NCc3cccs3)c3nccnc3n2)CC1 [Compound 18f, 2-(4-methylpiperazin-1-yl)-N-(thiophen-2-ylmethyl)pteridin-4-amine]",Hydroxyl radicals scavenged (%),[1],96%
same,Change in body weight (%),rat model of colitis; assessed after 48 h,-10.7%
same,Score (levels 0–5),"rat model of colitis; colonic damage score, 48 h",All rats exhibited partial to diffuse exfoliated mucosa or single/multiple erosion or ulceration (4–5)
same,IC50,[2],100 ± 1.5 µM
same,Greater reduction of edema in rat paw than indomethacin,"[3]; 0.01 mmol/kg, relative to indomethacin",60%
same,Reduction of rat paw edema after 1 h (%),"[3]; rat, 0.01 mmol/kg intraperitoneally, 1 h, mean of two experiments",41% and 41 ^† %
